Our source for the Km values is article PMC10143702, “Kinetic and Regulatory Properties of Yarrowia lipolytica Aconitate Hydratase as a Model-Indicator of Cell Redox State under pH Stress” (International Journal of Molecular Sciences, 2023).

The test system of test [1] is T1, aconitate hydratase (AH).
T1 construct: gene ACO1; cells grown at pH 5.5; [4Fe-4S] enzyme
The test is described as follows: spectrophotometric at […] nm; Lineweaver-Burk. The format is biochemical, Yarrowia lipolytica. The following applies: enzyme from cells grown at pH 5.5; 50 mM Tris-HCl pH 7.8, 25 °C; partially purified; reverse reaction; read-out: Isocitrate / Km.

Test [2] concerns T2, aconitate hydratase (AH).
T2 construct: gene ACO1
As to conditions: read-out: Citrate / Km; enzyme from cells grown at pH 5.5; 50 mM Tris-HCl pH 7.8, 25 °C; partially purified.

SMILES strings stand for the structures. Like-named read-outs stand apart in the source and are kept apart here.

With `O=C(O)C[C@H](C(=O)O)[C@@H](O)C(=O)O` [isocitrate], in the test on aconitate hydratase (AH) [1], the Km turned out to be 270 ± 15 µM. Turning to `O=C(O)CC(O)(CC(=O)O)C(=O)O` [citrate], the Km in the test with aconitate hydratase (AH) [2] worked out at 320 ± 11 µM.
